Source: PMC11527646, “Pharmacological blockade of the mast cell MRGPRX2 receptor supports investigation of its relevance in skin disorders” (Frontiers in Immunology, 2024)
“Also recorded” adds a separate entry of the source. Where two headings read alike, the source gives them in different places. Blank lines part the entries; values can stand above or below the molecule they belong to. Bridge positions count the residues as written; N and C are the ends. Peptide text beside a SMILES is read from it.

Columns and labels:
[1] = test system: human basophils; test: Histamine release from human blood basophils (buffy coats); format: cell-based; conditions: 0.2–25 μM; non-allergic or allergic donors, with or without anti-IgE pre-incubation
Procedure: Blood bank buffy coats were screened for reactions against 10 inhalant allergens (grass, birch, mugwort, cat, dog, horse, Dermatophagoides pteronyssinus, Dermatophagoides farinae, Cladosporium, and Alternaria) and 10 food allergens (milk, egg, wheat, peanut, hazelnut, kiwi, cod fish, shrimp, celeriac, and soy). Five buffy coats with histamine release > 30 ng/mL to any of the tested allergens and with a histamine release to blood with anti-IgE > 30 ng/mL were included as allergic donors. Further, five buffy coats with histamine release < 10 ng/mL to any of the above-mentioned allergens and with a histamine release to blood with anti-IgE > 25 ng/mL were included as non-allergic donors.
The buffy coats were pre-incubated for 30 min at 37°C with either buffer or anti-human IgE in concentrations ranging from 0.04 µg/mL to 5 µg/mL. […] Following pre-incubation with anti-IgE and incubation with SP, released histamine was quantified as previously described ([14]). Briefly, histamine was bound to a glass fiber matrix at the bottom of microtiter plates and after a series of wash steps coupled to ortho-phtaldialdehyde before being detected fluorometrically in the Histareader™ 501 (RefLab ApS, Copenhagen, Denmark). […]
Anti-IgE pre-stimulation. Histamine release measured in blood samples pre-incubated with various concentrations of anti-lgE for 30 mins, followed by 1 hour incubation with various […]

[2] = target: T1, MRGPRX2 (Homo sapiens, UniProt Q96LB1); test: LAD2 mast cell degranulation (β-hexosaminidase release), MRGPRX2 ligand-mediated; format: cell-based; set-up: human mast cells expressing endogenous MRGPRX2; endogenous in cells; […]
T1 sequence (Q96LB1 1-330): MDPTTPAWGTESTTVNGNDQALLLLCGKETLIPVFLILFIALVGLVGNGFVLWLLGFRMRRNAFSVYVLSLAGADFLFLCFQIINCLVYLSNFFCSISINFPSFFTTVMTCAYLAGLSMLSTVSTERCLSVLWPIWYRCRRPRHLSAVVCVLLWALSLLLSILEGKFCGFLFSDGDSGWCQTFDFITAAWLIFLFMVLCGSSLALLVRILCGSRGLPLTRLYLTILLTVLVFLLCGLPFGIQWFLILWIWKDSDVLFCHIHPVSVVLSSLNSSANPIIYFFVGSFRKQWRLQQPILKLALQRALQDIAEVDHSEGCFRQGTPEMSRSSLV
Procedure: Two different in vitro human mast cell systems were studied: (a) a human mast cell line, LAD2, established from a patient with mast cell sarcoma; and (b) mast cells freshly isolated from human skin. MRGPRX2 antagonist IC50 values were determined in the LAD2 mast cell degranulation assay using approximately EC80 concentrations for five different MRGPRX2 activating ligands (see Supplementary Figure 1 ).

SMILES: CSCC[C@H](NC(=O)[C@H](CC(C)C)NC(=O)CNC(=O)[C@H](Cc1ccccc1)NC(=O)[C@H](Cc1ccccc1)NC(=O)[C@H](CCC(N)=O)NC(=O)[C@H](CCC(N)=O)NC(=O)[C@@H]1CCCN1C(=O)[C@H](CCCCN)NC(=O)[C@@H]1CCCN1C(=O)[C@@H](N)CCCN=C(N)N)C(N)=O [Substance P]
Histamine release response of basophils [1]: no SP response could be detected

SMILES: COc1ccc(-n2nnnc2C(F)(F)F)cc1CN[C@H]1CCCN[C@H]1c1ccccc1 [vofopitant, reference compound]
Influence on Substance P-mediated mast cell degranulation ([2]; Substance P 1 μM, β-hexosaminidase release, n = 8): has no influence; also recorded: unaltered

SMILES: CC[C@H](C)[C@H](NC(=O)CNC(=O)[C@H](CC(=O)O)NC(=O)[C@H](CO)NC(=O)[C@@H](N)Cc1cnc[nH]1)C(=O)N[C@@H](Cc1ccccc1)C(=O)N[C@H](C(=O)N[C@@H](CC(=O)O)C(=O)N[C@@H](CO)C(=O)N[C@@H](Cc1ccc(O)cc1)C(=O)N[C@@H](CO)C(=O)N[C@@H](CCCNC(=N)N)C(=O)N[C@@H](Cc1ccc(O)cc1)C(=O)N[C@@H](CCCNC(=N)N)C(=O)N[C@@H](CCCCN)C(=O)N[C@@H](CCC(N)=O)C(=O)N[C@@H](CCSC)C(=O)N[C@@H](C)C(=O)N[C@H](C(=O)N[C@@H](CCCCN)C(=O)N[C@@H](CCCCN)C(=O)N[C@@H](Cc1ccc(O)cc1)C(=O)N[C@@H](CC(C)C)C(=O)N[C@@H](C)C(=O)N[C@@H](C)C(=O)N[C@H](C(=O)N[C@@H](CC(C)C)C(N)=O)C(C)C)C(C)C)[C@@H](C)O [PACAP-27, reference compound]
EC50 [2]: 218 nM

EC50 ([2]; representative dose response curves, read-out: LAD2 mast cell degranulation agonist EC50): 67 nM
SMILES: C[C@@H](O)[C@@H]1NC(=O)[C@H](CCCCN)NC(=O)[C@H](Cc2c[nH]c3ccccc23)NC(=O)[C@H](Cc2ccccc2)NC(=O)[C@H](Cc2ccccc2)NC(=O)[C@H](CC(N)=O)NC(=O)[C@H](CCCCN)NC(=O)[C@@H](NC(=O)[C@@H]2CCCN2)CSSC[C@@H](C(=O)N[C@@H](CCCCN)C(=O)O)NC(=O)[C@H](CO)NC(=O)[C@H](CO)NC(=O)[C@H](Cc2ccccc2)NC1=O [Cortistatin 14, reference compound] (H-PCKNFFWKTFSSCK-OH; disulfide 2-13; N-terminus and C-terminus assumed)
